We go through two compounds from article PMC11973282, “RAS70 peptide targets multiforme glioblastoma by binding to the plasma membrane heat shock protein HSP70” (Frontiers in Oncology, 2025).

The subject of series [1] is GL261 cells (lower chamber; HUVEC and astrocytes barrier).
Procedure: (§1) Then, a peptide labeled with a fluorescent label was introduced into the upper chamber and co-incubation was carried out for 12, 24 and 36 hours. At the end of the incubation, the tumor cells were washed with cold phosphate-buffered saline (PBS) and fixed with a 4% solution of paraformaldehyde in PBS. Nuclei were stained with 4’,6-diamidino-2-phenylindole (DAPI). Fluorescent images were obtained using a Leica TCS SP8 confocal microscope (Leica, Germany). To avoid possible cross-interference of different fluorochromes, images for DAPI and FITC were obtained using a sequential sample scanning method. Fluorescently labeled cells were counted in the lower chamber. To estimate the mHsp70-mediated uptake of chaperone-targeted peptides tumor cells prior to incubation were pre-treated with anti-Hsp70 monoclonal antibodies SPA-810 (1:250, Stressgen) and SPA-815 (1:250 Stressgen). To exclude integrin (αvβ3, αvβ5)-mediated penetration of RAS70 tumor cells prior to incubation with peptides were pre-treated with anti- αvβ3 (1:200 clone LM609, ZMS1030, Sigma-Aldrich, USA), -αvβ5 (1:200 clone P1F6, MAB1961Z, Sigma-Aldrich, USA) monoclonal antibodies.
(§2) Then, a peptide labeled with a fluorescent dye (FITC) was introduced into the upper chamber and co-incubation was carried out for 12, 24 and 36 hours. At the end of the incubation, the tumor cells were washed with cold phosphate-buffered saline (PBS) and fixed with a 4% solution of paraformaldehyde in PBS. Nuclei were stained with 4’,6-diamidino-2-phenylindole (DAPI).
(§3) Data from 3 independent experiments are presented as M ± SE. […] Data from 3 independent experiments are presented as M ± SE. ** p < 0.01 for testing mean expression levels.
The test system of series [2] is C6 cells (lower chamber; HUVEC and astrocytes barrier).
Procedure: as §1, §2, §3
Series [3] can be described thus: RAS70 solution stability study (HPLC-QTOF/MS). Format: physicochemical. To be noted: 1 mg/mL stock in sterile 0.9% sodium chloride, diluted working solutions, Protein LoBind tubes, HPLC-QTOF/MS peak area normalized to internal standard dalargin vs freshly prepared solutions. An excerpt:
HPLC grade reagents include acetonitrile (1.00029) and formic acid (5.33002), were purchased from Sigma Aldrich. The deionized HPLC grade water was obtained through a Milli-Q system (Millipore, Milford, MA, USA). Sodium acetate (Sigma Aldrich, St. Louis, USA) was used for MS calibration. Dalargin (Tyrosyl-D-alanyl-glycyl-phenylalanyl-leucyl-arginine; UNII V13505565P) was used as an internal standard. Protein LoBind® Tubes (022431081, Eppendorf, Hamburg, Germany). The stock solution of RAS70 were prepared by dissolving 1 mg of RAS70 reference standard in 1 mL of a sterile solution of 0.9% sodium chloride in water. After centrifugation the supernatant were transferred into Protein LoBind Tubes (Eppendorf, Hamburg, Germany). Working standard solutions for stability study were prepared using a dilution method. All of the solutions were stored away from light at RT and in a refrigerator at +4°C. The samples were analyzed on a HPLC-QTOF/MS system (Bruker Daltonics, Bremen, Germany) that consisted of an Elute UHPLC coupled to Q-TOF Maxis Impact equipped with an electrospray ionization source ( Supplementary Figure S1 ). […] Chromatograms and mass spectra were analyzed using DataAnalysis® 5.0 software (Bruker Daltonics GmbH, Bremen, Germany). […]

Another series concerns primary GBM IBD cells. Kind of series: Cell motility analysis. Type of series: cell-based, human. The conditions noted are these: 56 h recording. The protocol: The cell speed of the primary GBM culture was determined using Image ExFluorer, an automatic cell imaging device (LCI, Korea). The cells were seeded into 24-well plates, and the cell nuclei were labelled with the fluorescent dye Hoechst 33342. The plates were then placed in an integrated incubator with temperature control (37°C) and 5% CO2. The fluorescence was stimulated at 405 nm using a long-focus semi-apochromatic 20× lens with a numerical aperture of 0.45. The primary IBD cell line was divided into 4 wells, each with five visual fields: two untreated wells on distinct matrices (Collagen I and Fibrinogene) and two wells containing RAS70 peptide on matrices.
FOVs were captured every 15 minutes over 56 hours, resulting in images with a resolution of 2.560 × 2.160 pixels (0.33 μm/px). Real-time focus correction was used. The captured frames were analyzed using the NIS-Elements software with a module for automatic segmentation, quantification, and tracking of individual cells. Cell nuclei (with a diameter of more than 2.5 μm) were recognized in images, and the X-Y coordinates of the nuclei were recorded. Cell movement tracks were built according to the coordinates of the nuclei, and the motility metrics (average speed, maximal speed, and track straightness) were calculated.
Additionally, we evaluated the effect of RAS70 peptide on cell motility of primary glioblastoma culture. In order to investigate the possible influence of the RAS70 peptide on the invasive capacity of tumor cells, we conducted an experiment in which we recorded cell motility on two different substrates (Collagen I, Fibrinogen) for 56 h.

In series [4] the test system is C6, GL261, and T98G cells. Put plainly: MTT test, overall statement for all cell lines studied. To be noted: fluorescently labeled peptides, 7.5, 75, 750 µg/mL, 24, 48 and 72 hours.
Procedure: 3-(4,5-dimethylthiazol-2-yl)-2,5-diphenyltetrazolium bromide (MTT) assay was performed to evaluate the cytotoxic effect of TKD-sCy5, RAS70-sCy5, and NGL-RGD-sCy5 peptides. The C6, GL261, and T98G cells were seeded in 96-well plates (Thermo Fisher Scientific, Waltham, USA) at concentration of 5*10^3 cells in 100 µL per well, plates were incubated at 37°C in 5% CO2. After 24 hours, peptides were added to the culture medium for final concentration of 7.5, 75, and 750 μg/mL; plates were incubated for 24, 48 and 72 hours. […] At the end of the incubation period, 1 mg/mL MTT solution was added for 4 hours and dissolved with DMSO. The absorbance was measured at 570 nm using Varioskan LUX Multimode Microplate Reader (Thermo Fisher Scientific, Waltham, USA).
Subsequently, we analyzed the cytotoxic effect of the peptides (RAS70, TKD, NGL, NGL-RGD) using the MTT test at various peptides concentrations (7.5, 75, 750 µg/mL) and co-incubation times of 24, 48 and 72 hours.
The test system of series [5] is U251 cells (lower chamber; HUVEC and astrocytes barrier). Kind of series: Transwell BBB model, peptide passage and accumulation in tumor cells. To be noted: transwell BBB model: HUVEC (5×10^5) and astrocytes (5×10^5) in upper chamber, U251 (1×10^4) in lower chamber; FITC-labeled peptide; 36 hours; confocal microscopy count; M ± SE, 3 independent experiments.
Procedure: as §1, §2, §3
The test system of series [6] is GL261 cells (lower chamber; HUVEC and astrocytes barrier). Described as above. To be noted: transwell BBB model: HUVEC (5×10^5) and astrocytes (5×10^5) in upper chamber, GL261 (1×10^4) in lower chamber; FITC-labeled peptide; 36 hours; confocal microscopy count; M ± SE, 3 independent experiments.
Procedure: as §1, §2, §3

Where two headings read alike, the source gives them in different places.

Regarding `CC(C)C[C@H](NC(=O)[C@H](CC(C)C)NC(=O)[C@H](CC(N)=O)NC(=O)[C@H](CC(N)=O)NC(=O)[C@H](CC(=O)O)NC(=O)[C@H](CCCCN)NC(=O)[C@@H](N)[C@@H](C)O)C(=O)NCC(=O)N[C@@H](CCCNC(=N)N)C(=O)N[C@@H](Cc1ccccc1)C(=O)N[C@@H](CCC(=O)O)C(=O)N[C@@H](CC(C)C)C(=O)N[C@@H](CO)C(=O)NCC(=O)NCCC(=O)N[C@@H](CCCNC(=N)N)C(=O)NCC(=O)N[C@@H](CC(=O)O)C(=O)O` [RAS70], the “fluorescently labeled tumor cells in the lower chamber” value in series [1] came to 553 ± 61 cells. Moreover, the “fluorescently labeled tumor cells in the lower chamber” value in series [2] was found to be 567 ± 72 cells. Besides, the “time for which RAS70 solution was stable” value in series [3] (storage at RT away from light) was found to be 1 week. The “time for which RAS70 solution was stable” value in series [3] (storage in refrigerator at +4°C away from light) was determined as 1 week. Further, in the series on primary GBM IBD cells (IBD cells on Collagen I), the “effect on average cell speed” value is on record as “no effect on the average cell speed”, the “effect on maximum cell speed” value is recorded as “slightly diminished maximum cell speed” and the “effect on track straightness” value is reported as “increased the straightness of the trajectories”. Besides, the “effect on motility metrics (average speed, max speed, track straightness)” value in the series with primary GBM IBD cells (IBD cells on fibrinogen) is on record as “did not affect any of the measured motility metrics”.
Regarding `CC(C)C[C@H](NC(=O)[C@H](CC(C)C)NC(=O)[C@H](CC(N)=O)NC(=O)[C@H](CC(N)=O)NC(=O)[C@H](CC(=O)O)NC(=O)[C@H](CCCCN)NC(=O)[C@@H](N)[C@@H](C)O)C(=O)NCC(=O)N[C@@H](CCCNC(=N)N)C(=O)N[C@@H](Cc1ccccc1)C(=O)N[C@@H](CCC(=O)O)C(=O)N[C@@H](CC(C)C)C(=O)N[C@@H](CO)C(=O)NCC(=O)O` [TKD], in series [4], the “cytotoxic effect (MTT test)” value is reported as “did not reveal the toxic effect”. In addition, the “fluorescently labeled tumor cells in the lower chamber” value in series [5] is given as 345 ± 51 cells; in series [6] it was 289 ± 51 cells.
